As a reminder, the % inhibition is the change of the read-out against control, counted positive when it falls. Read a high % inhibition as a response far below the control. In general, inhibition refers to the percentage by which the read-out fell short of the control.

Here are results for 22 compounds from patent US6204293A, “Inhibitors of protein isoprenyl transferases” (University of Pittsburgh, priority 1998, dated 2001).

Where a name gives a salt, the structure may show the parent alone. Read-outs that look alike come from different tables or passages of the source.

The target of the test is T1, Rat brain protein farnesyltransferase (Rattus norvegicus, UniProt Q02293+Q04631).
T1 construct: Rat brain protein farnesyltransferase activity is measured; from tissue; host or cells: rat brain
The experiment in a line: % inhibition of farnesylation, scintillation proximity assay with biotin-K Ras B fragment. It counts as biochemical. The following applies: for inhibition at 1 µM: read-out: % inhibition at 1 × 10^-6 M. The source says: The ability of the compounds of the invention to inhibit protein farnesyltransferase or protein geranylgeranyltransferase can be measured according to the method of Moores, et al., J. Biol. Chem. 266: 14603 (1991) or the method of Vogt, et al., J. Biol. Chem. 270:660-664 (1995). In addition, procedures for determination of the inhibition of farnesylation of the oncogene protein Ras are described by Goldstein, et al., J. Biol. Chem., 266:15575-15578 (1991) and by Singh in U.S. Pat. No. 5,245,061.
In addition, in vitro inhibition of protein farnesyltransferase may be measured by the following procedure. Rat brain protein farnesyltransferase activity is measured using an Amersham Life Science commercial scintillation proximity assay kit and substituting a biotin-K Ras B fragment (biotin-[…]CO2 H), 0.1 mM final concentration, for the biotin-lamin substrate provided by Amersham. The enzyme is purified according to Reiss, Y., et al., Cell, 62: 81-88 (1990), utilizing steps one through three.
The % inhibition of protein farnesyltransferase was determined for representative compounds of the invention.

T1 sequence (Q02293 whole entry, one chain of several): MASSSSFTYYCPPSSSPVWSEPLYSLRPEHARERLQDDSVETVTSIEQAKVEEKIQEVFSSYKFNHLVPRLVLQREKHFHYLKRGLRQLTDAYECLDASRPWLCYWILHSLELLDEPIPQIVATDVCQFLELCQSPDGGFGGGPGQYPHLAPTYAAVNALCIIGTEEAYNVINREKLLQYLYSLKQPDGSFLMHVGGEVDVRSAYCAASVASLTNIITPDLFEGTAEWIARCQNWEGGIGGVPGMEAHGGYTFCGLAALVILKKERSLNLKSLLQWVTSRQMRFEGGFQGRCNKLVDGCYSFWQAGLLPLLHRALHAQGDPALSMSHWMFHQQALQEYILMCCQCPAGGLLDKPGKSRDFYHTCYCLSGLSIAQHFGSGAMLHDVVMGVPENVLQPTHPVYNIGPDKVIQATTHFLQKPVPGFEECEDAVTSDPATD

As for `CSCCC(NC(=O)c1ccc(NC(=O)Cc2cscn2)cc1-c1ccccc1)C(=O)O` (stereo not shown) [Example 162], the “% inhibition at 1 × 10^-6 M” value (Table 2, 1 × 10^-6 M) stood at 12%.
Turning to `CSCC[C@H](NC(=O)c1ccc(NC(=O)Cc2nccs2)cc1-c1ccccc1)C(=O)O` [Example 163], the “% inhibition at 1 × 10^-6 M” value (Table 2, 1 × 10^-6 M) worked out at 18%.
On the same count and under the same terms, as for `COC(=O)[C@H](CCSC)NC(=O)c1ccc(NC(=O)[C@@H]2CSCN2)cc1-c1ccccc1.Cl` [Example 164], the figure is 92%; as for `CSCC[C@H](NC(=O)c1ccc(NC(=O)[C@@H]2CSCN2)cc1-c1ccccc1)C(=O)O` [Example 165], 74%.
As to `CSCC[C@H](NC(=O)c1ccc(NC[C@@H]2CSCN2)cc1-c1ccccc1)C(=O)O.Cl` [Example 166], under “Table 2, 1 × 10^-6 M”, the “% inhibition at 1 × 10^-6 M” value is listed as 97%.
Regarding `CSCC[C@H](NC(=O)c1ccc(NC(=O)C2CCC(=O)N2)cc1-c1ccccc1)C(=O)O` (stereo partly shown) [Example 202], the “% inhibition at 1 × 10^-6 M” value (Table 2, 1 × 10^-6 M) stood at 31%.
Still for that read-out and setting: for `CSCCC(NC(=O)c1ccc(NC(=O)c2cncnc2)cc1-c1ccccc1)C(=O)O` (stereo not shown) [Example 219] the value was 56%.
Take `CSCC[C@H](NC(=O)c1ccc(N2CC(=O)NNC2=O)cc1-c1ccccc1)C(=O)O` [Example 224]: the “% inhibition at 1 × 10^-6 M” value (Table 2, 1 × 10^-6 M) was 41%.
Same read-out and setting: as for `CSCCC(NC(=O)c1ccc(NC(=O)C2CCCNC2)cc1-c1ccccc1)C(=O)O` (stereo not shown) [Example 231], the figure is 50%.
Consider `CSCC[C@H](NC(=O)c1ccc(COCc2cccs2)cc1-c1ccccc1C)C(=O)O` [Example 273, [4-(2-thienylmethoxymethyl)-2-(2-methylphenyl)benzoyl]methionine Lithium salt], for which the inhibition at 1 µM was determined as 96%.
Still for that read-out and setting: for `CSCC[C@H](NC(=O)c1ccc(COCc2ccsc2)cc1-c1ccccc1C)C(=O)O` [Example 274, [4-(3-thienylmethoxymethyl)-2-(2-methylphenyl)benzoyl]methionine Lithium salt] the value was 94%.
`CSCC[C@H](NC(=O)c1ccc(NC(=O)C2=C(C(F)(F)F)C=CNC2)cc1-c1ccccc1)C(=O)O` [Example 283]: the “% inhibition at 1 × 10^-6 M” value (Table 2, 1 × 10^-6 M) is 98%.
Still for that read-out and setting: for `CSCC[C@H](NC(=O)c1ccc(NCC2CNCCN2)cc1-c1ccccc1)C(=O)O` (stereo partly shown) [Example 286] the value was 84%.
In the case of `CSCC[C@H](NC(=O)c1ccc(COCC2CCOC2)cc1-c1ccccc1)C(=O)O` (stereo partly shown) [Example 287, [4-(3-tetrahydrofurylmethyloxymethyl)-2-phenylbenzoyl]methionine], where the note is “Table 2, 1 × 10^-6 M”, the inhibition at 1 µM stood at 24%.
Same read-out and setting: as for `CSCC[C@H](NC(=O)c1ccc(COCC2CCCO2)cc1-c1ccccc1)C(=O)O` (stereo partly shown) [Example 288, [4-(2-tetrahydrofurylmethyloxymethyl)-2-phenylbenzoyl]methionine], the figure is 22%.
Regarding `CCCCON(CCC1CCCCC1)Cc1ccc(C(=O)N[C@@H](CCS(C)(=O)=O)C(=O)O)c(-c2ccccc2C)c1` [Example 298], the “% inhibition at 1 × 10^-6 M” value (Table 2, 1 × 10^-6 M) is 43%.
Consider `CSCC[C@H](NC(=O)c1ccc(COCc2ccco2)cc1-c1ccccc1C)C(=O)O` [Example 299, [4-(2-furylmethyloxymethyl)-2-(2-methylphenyl)benzoyl]methionine], for which, for the setting “Table 2, 1 × 10^-6 M”, the inhibition at 1 µM turned out to be 94%.
For the compound `CCCCN(C)N(CCC1CCCCC1)Cc1ccc(C(=O)N[C@@H](CCS(C)(=O)=O)C(=O)O)c(-c2ccccc2C)c1` [Example 300], for the setting “Table 2, 1 × 10^-6 M”, the “% inhibition at 1 × 10^-6 M” value is listed as 22%.
Same read-out and setting: for `CSCC[C@H](NC(=O)c1ccc(CN(C)C(CC2CCCCC2)C(=O)N2CCCCC2)cc1-c1ccccc1C)C(=O)O` (stereo partly shown) [Example 301] the value was 98%.
On the same count and under the same terms, as for `CSCC[C@H](NC(=O)c1ccc(CNCc2ccco2)cc1-c1ccccc1)C(=O)[O-].[Li+]` [Example 302], the figure is 31%.
`CSCC[C@H](NC(=O)c1ccc(CNC(C)(C)Cc2ccccc2)cc1-c1ccccc1C)C(=O)O` [Example 307]: the “% inhibition at 1 × 10^-6 M” value (Table 2, 1 × 10^-6 M) amounted to 82%.
Same read-out and setting: as for `CSCC[C@H](NC(=O)c1ccc(CNC(C)(C)CC2CCCCC2)cc1-c1ccccc1C)C(=O)O` [Example 308], the figure is 62%.
